In patent US8691772B2, “HSP60, HSP60 peptides and T cell vaccines for immunomodulation” (Yeda Research and Development Co. Ltd., priority 2005, dated 2014):
Ends that are not written are not given here.

How the values were obtained:
[1] = tested on: SOCS3; assay: SOCS3 expression in human T cells (immunoblot); format: cell-based; settings: for effect of blocker on HSP60-induced SOCS3 activation: human T cells pre-treated with blocker
[2] = tested on: HSP60; assay: HSP60 expression in activated T cells by western blot; format: cell-based, Lewis rats; settings: LNC with Con A; A2b clone with peptide, 72 hr
Method: Western blotting. Cell lysates of resting or activated T cells were prepared by treatment for 15 minutes in the following lysis buffer: NP40 1%, NaCl 0.9%, Tris 50 mM, EDTA 1 mM, PMSF 0.4 mM, pepstatin A 4 μg/ml, leupeptin 4 μg/ml and aprotinin 4 μg/ml. The lysates were centrifuged for 15 min at 14000 rpm and the protein concentration in the supernatant was determined using a BCA protein assay kit (Pierce, Rockford, Ill., USA). The lysates were subjected to PAGE-SDS using a mini-gel apparatus (Bio-Rad Laboratories, Hercules, Calif.); 100 μg of each sample were loaded per well. Two identical gels were run each time in parallel: one gel was stained with Coomassie Brilliant Blue R-250 according to the manufacturer's protocol (Bio-Rad) and the other was electro-transferred to nitrocellulose membranes (Schleicher and Schuell, Dassel, Germany).
The nitrocellulose membranes were washed with PBS and then blocked for 1 hr with 2% bovine serum albumin (Sigma), 2.5% milk powder (Bio-Rad), Tris (Sigma) pH 7.5 10 mM, NaCl 150 mM and 0.02% thimerosal (Sigma). […] Finally, the membranes were developed using the Western Blotting Luminol Reagent (Santa Cruz Biotechnology Inc., Santa Cruz, Calif., USA), exposed to X-ray film and quantified using the NIH Image 1.63 program (National Institutes of Health, USA). Size was determined using pre-stained broad-range protein standard markers (Bio-Rad).

[3] = tested on: activated A2b T cells; assay: Anti-ergotypic T-cell proliferation assay; format: cell-based, Lewis rats; settings: rats vaccinated with peptide in IFA, 26 days after AA induction; compared to Mt3
From the text: (§1) T-cell lines and clones T-cell lines were raised and expanded using antigen presenting cells (APC) and antigens or peptides as described (Mor et al., 1992). Three Lewis rat T-cell lines were used in our experiments: Anti-HSP60, raised against recombinant human HSP60 (human HSP60 is 97% identical to rat HSP60 at the aa level); Anti-p277, raised against the p277 peptide of human HSP60 (96% identical its rat counterpart at the aa level) and Anti-MBP, raised against guinea pig MBP. For ergotypic stimulation, the A2b T-cell clone, specific for the 180-188 epitope of HSP65 (van Eden et al., 1988) was used; similar results were obtained when other rat T-cell clones were used as targets. A2b expresses MHC-I molecules constitutively and CD80, CD86 and MHC-II molecules upon activation, and can present peptide epitopes to T cells. Activated A2b cells were used on day 3 of their stimulation, and resting A2b cells were used on day 14-16 of their rest cycle, unless stated otherwise.
DNA and peptide vaccination. The vectors containing the full-length cDNA of the human hsp60 gene (pHSP60) or the cDNA corresponding to aa 1-140 (pI) or aa 130-260 (pII) have been previously described (Quintana et al., 2002, Quintana et al., 2002b, Quintana et al., 2003, Quintana et al., 2000). […]
Anti-ergotypic T-cell proliferation assay. […] The cultures were harvested and cpm were determined using a beta counter. […]

[4] = tested on: activated A2b T cells; assay: Anti-ergotypic cytokine response (cytokine assays); format: cell-based, Lewis rats; settings: rats vaccinated with peptide in IFA; response to activated A2b T cells
From the text: as §1
Cytokine assays. Supernatants were collected after 72 hr of stimulation with test antigens or stimulator cells. Pharmingen's OPTEIA IL-10, IL-4 and IFNγ kits (Pharmingen, San Diego, USA) and the TGFβ1 Emax® ImmunoAssay System (Promega, Madison, USA) were used to quantify cytokine release to culture supernatants, as previously described (Quintana et al., 2002b). […]

[5] = tested on: AA; settings: DNA or peptide vaccination; Quintana et al., Ragno et al.; cited from earlier work
[6] = tested on: ConA-induced hepatitis; assay: ConA-induced hepatitis (acute liver injury); format: in vivo, BALB/c mice
[7] = tested on: Mouse splenic purified T cells; assay: Anti-CD3-induced T-cell proliferation; format: cell-based, C57BL/6J mice; settings: for anti-CD3-induced T-cell proliferation: summary of Table 1
From the text: Purification of naïve T cells: Mouse spleen-cell suspensions were depleted of red blood cells by treatment with red blood lysis buffer (Sigma, St Louis, USA). T cells were then purified by negative selection with a T-cell isolation kit containing biotin-conjugated monoclonal antibodies to CD11b, CD45R, DX5 and Ter-119 (Miltenyi Biotec, Bergisch Gladbach, Germany). This procedure routinely yielded T cell preparations that were >95% positive for the CD3 marker as determined by FACS analysis.
Cells and medium: The T-cells cultures were set in RPMI-1640 supplemented with 5% FCS (Hyclon Logan, Utah) 100 U/ml penicillin, 100 μg/ml streptomycin, 50 μM 2β-ME, 12.5 mM hepes, 2 mM L-glutamine, 1 mM sodium pyruvate and non essential amino acids (biological industries 01-340-1 diluted 1:100).
The hamster anti-mouse anti-CD3 antibody was collected by TCA precipitation from 2C11 hybridoma supernatant. For the proliferation assay, non-tissue culture-treated polystyrene flat-bottom 96-well microtiter plates (Nunc 269787) were incubated overnight at 4° C. with 0.5-2 μg/ml anti-CD3 antibody.
(§2) T-cell proliferation: Mouse splenic purified T cells (1×10^5) were pre-incubated with the p277 analogs p277(Val^6Val^11) (SEQ ID NO:2) or p277(Ser^6Ser^11) (SEQ ID NO:3) at the indicated concentrations for 30-60 min, and transferred to anti-CD3 coated wells in triplicate or quadruplicate in 200 μl culture medium. After 72 h of incubation (37° C., 5% CO2) the cells were pulsed with 1 μCi [^3H]-thymidine for 7 h, and [^3H] thymidine incorporation was measured using a 96-well plate beta-counter. The mean cpm±Standard Error were calculated for each triplicate or quadruplicate.

[8] = tested on: Mouse splenic purified T cells; assay: Anti-CD3-induced IFNγ secretion (ELISA); format: cell-based, C57BL/6J mice; settings: for anti-CD3-induced IFNγ secretion: summary of Table 1
Method: as §2
Interferon-gamma (IFNγ) secretion to the culture media was determined by using an ELISA assay (OptiEIA kits, BD Pharmingen and Pierce Endogen) following the manufacturer's instructions. Standard curves were established using mouse recombinant cytokines. The assay detection limit was 16-32 pg/ml.

[9] = tested on: diabetes; settings: single subcutaneous injection in mineral oil; cited from earlier work
[10] = tested on: CD4^+CD25^+ T cells; assay: Co-culture of treated CD4+CD25+ T cells with CD4+CD25- T cells; format: cell-based, human; settings: CD4+CD25+ treated with peptide 1 ng/ml, 2 hours; co-culture with untreated CD4+CD25-
[11] = i.p. 330 μl, 500 ng/ml, 18 and 1 hr prior to ConA, 24 hr after ConA

Compound: N#C/C(=C/c1ccc(O)c(O)c1)C(=O)NCc1ccccc1 [AG490, reference compound]
- effect of blocker on HSP60-induced SOCS3 activation [1]: abrogated the effect of HSP60on SOCS3 expression

Compound: Concanavalin A [Con A]
- expression levels of HSP60 (western blot) [2]: triggered a similar increase in the expression levels of HSP60

Compound: EESNTFGLQLELTEG [Mt176-90]
- expression levels of HSP60 (western blot) [2]: up-regulation of HSP60

Compound: KFGADARALMLQGVDLLADA [Hu3]
- anti-ergotypic proliferative response of LNC [3]: significantly (p<0.05) more effective in inducing an anti-ergotypic proliferative response
- anti-ergotypic cytokine secretion (IFNγ, TGFβ1, IL-10, IL-4) [4]: secreted IFNγ and TGFβ1, but not IL-10 or IL-4
- inhibition of AA by vaccination [5]: can also inhibit AA

Compound: VAGGGVTLLQAAPTLDELKLEG [MTp277, reference compound]
- serum level of IL-10 ([6]; 2 hr after ConA): did not seem to have a significant effect on the levels of cytokines
- serum level of TNF-α ([6]; 2 hr after ConA): did not seem to have a significant effect on the levels of cytokines

Compound: VLGGGSALLRSIPALDSLTPANED [p277(Ser^6Ser^11)]
- anti-CD3-induced T-cell proliferation [7]: inhibited T-cell proliferation and IFNγ secretion
- Percent Inhibition of IFNγ secretion ([8]; peptide 0.1 ng/ml): 86.6% ± 11.3%
- Percent Inhibition of IFNγ secretion ([8]; peptide 1 ng/ml): 86.4% ± 1.3%
- Percent Inhibition of IFNγ secretion ([8]; peptide 10 ng/ml): 82.6% ± 4.75%
- anti-CD3-induced IFNγ secretion [8]: inhibited T-cell proliferation and IFNγ secretion
- incidence of diabetes [9]: did not reduce the incidence of diabetes

Compound: VLGGGVALLRVIPALDSLTPANED [p277(Val^6Val^11)]
- expression of activated SOCS3 [1]: induced a marked expression of activated SOCS3 in T cells
- IFN-γ and TNF-α secretion, and proliferation in co-culture [10]: significantly inhibited IFN-γ and TNF-α secretion, and proliferation
- serum level of IL-6 ([6]; 2 hr after ConA): increased the level of IL-6
- serum level of IL-10 ([6]; 2 hr after ConA): significantly increased
- serum level of TNF-α ([6]; 2 hr after ConA): significantly decreased
- serum ALT [6, 11]: significantly inhibited ALT and AST secretion
- serum AST [6, 11]: significantly inhibited ALT and AST secretion
- Percent Inhibition of proliferation ([7]; peptide 0.1 ng/ml): 50% ± 19%
- Percent Inhibition of proliferation ([7]; peptide 1 ng/ml): 73% ± 7.5%
- Percent Inhibition of proliferation ([7]; peptide 10 ng/ml): 69% ± 14%
- anti-CD3-induced T-cell proliferation [7]: inhibited T-cell proliferation and IFNγ secretion
- Percent Inhibition of IFNγ secretion ([8]; peptide 0.1 ng/ml): 94% ± 0.81%
- Percent Inhibition of IFNγ secretion ([8]; peptide 1 ng/ml): 88.9% ± 3.4%
- Percent Inhibition of IFNγ secretion ([8]; peptide 10 ng/ml): 86.7% ± 8.8%
- anti-CD3-induced IFNγ secretion [8]: inhibited T-cell proliferation and IFNγ secretion

Compound: pertussis toxin [reference compound]
- effect of blocker on HSP60-induced SOCS3 activation [1]: had no effect

Compound: polymyxin B [PMB, reference compound]
- effect of blocker on LPS-induced SOCS3 activation ([1]; LPS 100 ng/ml): inhibited by PMB
